The text below walks through data of patent US20120108592A1, “PHARMACEUTICAL COMPOSITIONS AND METHODS OF USE OF SALICYLANILIDES FOR TREATMENT OF HEPATITIS VIRUSES” (priority 2010, published 2012).

Series [1] concerns HCV replicon cell line, AVA5 (sub-genomic CONI, genotype 1b). Put plainly: Primary HCV replicon cell assay, antiviral activity (intracellular HCV RNA, blot hybridization). It counts as cell-based. As to conditions: Hepatitis C virus, Ava5, 72 h, 3-day assay; for EC50: 2-fold depression of intracellular HCV RNA; for EC90: 10-fold depression of intracellular HCV RNA. The method, then: (§1) Antiviral activity of test compounds was assessed in a 3-day assay using the stably-expressing HCV replicon cell line, AVA5 (sub-genomic CONI, genotype 1b) [Korba, B. E. et al. Antiviral Res. 77, 56-63 (2008); Blight et al., Science 290, 1972-1974 (2000)] maintained as sub-confluent cultures on 96-well plates as previously described [Okuse et al., Antiviral Research 65, 23-34 (2005)]. Antiviral activity was determined by blot hybridization analysis of intracellular HCV RNA (normalized to the level of cellular B-actin RNA in each culture sample) and cytotoxicity was assessed by neutral red dye uptake after 3 days of treatment. Additional studies were performed using Huh7 cells containing another HCV replicon, H/FL-Neo, a genotype la full length construct [Blight et al., J. Virol. 77, 3181-3190 (2003)]. For studies involving human serum, standard culture medium (which contains 10% fetal bovine serum) and assay conditions were maintained.
(§2) EC50, EC90 and CC50 values (±standard deviations [S.D.]) were calculated by linear regression analysis using data combined from all treated cultures (Korba, B. E. et al. Antiviral Res. 77, 56-63 (2008)). […] Selectivity index (S.I.) was calculated as CC50/EC90 for HBV assays and CC50/EC50 for HCV assays.

Series [2] can be described thus: Primary HCV replicon cell assay, cytotoxicity (neutral red dye uptake). As to conditions: human, 3 days of treatment. Type of series: cell-based. In general terms: A replicon is a self-replicating genome or part of one, used to study replication in cells.
Protocol: (§4) Antiviral activity of test compounds was assessed in a 3-day assay using the stably-expressing HCV replicon cell line, AVA5 (sub-genomic CONI, genotype 1b) [Korba, B. E. et al. Antiviral Res. 77, 56-63 (2008); Blight et al., Science 290, 1972-1974 (2000)] maintained as sub-confluent cultures on 96-well plates as previously described [Okuse et al., Antiviral Research 65, 23-34 (2005)]. Antiviral activity was determined by blot hybridization analysis of intracellular HCV RNA (normalized to the level of cellular B-actin RNA in each culture sample) and cytotoxicity was assessed by neutral red dye uptake after 3 days of treatment. Additional studies were performed using Huh7 cells containing another HCV replicon, H/FL-Neo, a genotype la full length construct [Blight et al., J. Virol. […] For studies involving human serum, standard culture medium (which contains 10% fetal bovine serum) and assay conditions were maintained.
In series [3] the test system is HCV replicon cell line, AVA5 (sub-genomic CONI, genotype 1b). Description: Secondary HCV replicon cell assay genotype 1b, antiviral activity. Type of series: cell-based. To be noted: Hepatitis C virus; for EC50: 2-fold depression of intracellular HCV RNA; for EC90: 10-fold depression of intracellular HCV RNA. The method, then: as §1, §2
Series [4] is described as follows: Secondary HCV replicon cell assay genotype 1b, cytotoxicity (neutral red dye uptake). Type of series: cell-based. As to conditions: human, AVA5 HCV replicon cells (sub-genomic CON1).
Protocol: as §4
Series [5] relates to HCV replicon H/FL-Neo, genotype 1a full length construct, in Huh7 cells. Put plainly: Secondary HCV replicon cell assay genotype 1a, antiviral activity. It counts as cell-based. To be noted: Hepatitis C virus; for EC50: Huh-7, 2-fold depression of intracellular HCV RNA; for EC90: Huh-7, 10-fold depression of intracellular HCV RNA. The method, then:
as §1, §2

A short description of series [6]: Secondary HCV replicon cell assay genotype 1a, cytotoxicity (neutral red dye uptake). To be noted: human. It counts as cell-based.
Protocol: as §4
The subject of series [7] is J6/JFH-1 HCV (genotype 2a) in Huh 7.5 cells. Put plainly: Infectious genotype 2a HCV cell culture assay (RT-PCR viral load). Type of series: cell-based, hepatitis C virus (HCV). As to conditions: genotype G2a; for inhibition of J6/JFH-1 HCV replication: 1 μM test concentration; for relative activity / potency versus NTZ: at 1 μM, % of NTZ. Here is the method:
(§3) Genotype 2a antiviral assays were conducted as previously described [Broering R. et al., Gut, 59, 1111-1119 (2010)]. […] Cell viability was determined using the Calcein assay kit (Biotium, Inc. Hayward, Calif., USA). The alternate method for measuring cell cytotoxicity was via the Guava Technologies ViaCount assay (Millipore) The ViaCount Assay provides rapid and reliable determinations of viability and total cell count. It distinguishes viable and non-viable cells based on differential permeabilities of two DNA-binding dyes in the Guava ViaCount® Reagent. The nuclear dye stains only nucleated cells, while the viability dye brightly stains dying cells. This combination of dyes enables the Guava ViaCount Assay to distinguish viable, apoptotic, and dead cells. Debris is excluded from results based on negative staining with the nuclear dye.
HCV replication levels were determined by RT-PCR on RNA from cell culture supernatants. J6-infected Huh 7.5 cells were seeded in 12-well plates at a density of 2.0E5 cells/well in 1.5 mL of DMEM supplemented with 10% FBS and 1% Pen/Strep. […] A positive control of IFN-α at concentrations of 10 IU/mL and 50 IU/mL, negative control wells containing mock incubations of DMEM with 1 uL and 10 uL (the same volume of the molecular compounds at 1 uM and 10 uM, respectively) of DMSO was included to rule out nonspecific effects of DMSO on the cells, and J6-infected with only DMEM were used as negative controls. A final control group consisted of un-infected Huh 7.5 cells, plated at the same time and density as the J6-infected cells on a separate plate. 48 hours and 120 hours after incubation with thiazolides, the media was collected and frozen, cells were washed 2× with PBS, and lysed in 500 uL of lysis buffer per well. Following lysis, RNA was extracted from the cells using the RNAqueous-4PCR Kit from Ambion, and the RNA concentration determined using the Nanoprop® machine. Reverse-transcription reactions produced 1.5 μg of cDNA per sample, which was then used for rt-PCR to quantify the HCV viral load in each sample. Analysis of the rt-PCR results generated the fold increases and decreases of the HCV viral load in comparison to untreated J6 cells.

Series [8] has as its system Huh 7.5 cells. Description: Cytotoxicity in Huh 7.5 cells (Calcein / ViaCount assay). It counts as cell-based. Here is the method:
as §3

The subject of series [9] is HBV virion in 2.2.15 cells. Description: HBV antiviral assay in 2.2.15 cells, virion (VIR) HBV DNA. It counts as cell-based. As to conditions: Hepatitis B virus, HBV virion DNA, 2.2.15 cells, nine daily doses; for EC50: read-out: EC50 (VIR).
Protocol: (§5) HBV antiviral assays were conducted as previously described [Korba, B. E. et al. Antiviral Res. 77, 56-63 (2008);].
Series [10] is described as follows: Cytotoxicity in 2.2.15 cells (neutral red dye uptake). It counts as cell-based. To be noted: human, nine daily doses. The method, then: Briefly, confluent cultures of 2.2.15 cells were maintained on 96-well flat-bottomed tissue culture plates (confluence in this culture system is required for active, high levels of HBV replication equivalent to that observed in chronically-infected individuals. Cultures were treated with nine consecutive daily doses of the test compounds. HBV DNA levels were assessed by quantitative blot hybridization 24 hr. after the last treatment. Cytotoxicity was assessed by uptake of neutral red dye 24 hr. following the last treatment.

Series [11] relates to AVA5 HCV replicon cell line. Put plainly: Secondary HCV replicon cell assay genotype 1b, cytotoxicity (neutral red dye uptake). Type of series: cell-based.
Protocol: as §4
Series [12] relates to Huh7 cells containing H/FL-Neo replicon. Put plainly: Secondary HCV replicon cell assay genotype 1a, cytotoxicity (neutral red dye uptake). It counts as cell-based.
Protocol: as §4
Series [13] relates to HBV replication intermediates in 2.2.15 cells. Put plainly: HBV antiviral assay in 2.2.15 cells, replication intermediates (RI) HBV DNA. Type of series: cell-based. To be noted: Hepatitis B virus; HBV replication intermediates, 2.2.15 cells, nine daily doses; read-out: EC50 (RI).
Protocol: as §5
The conditions of series [14]: after oral 500 mg NTZ tablet; cited from earlier work.
The mark [15] stands for this setting: AVA5 HCV replicon cells (sub-genomic CON1, genotype 1b).

SMILES strings stand for the structures. Entries after “also recorded” stand apart in the source; their conditions may differ. Some results are limits rather than exact numbers.

With `O=C(Nc1cccc(F)c1)c1ccccc1O` [Compound 3, N-(3-fluorophenyl)-2-hydroxybenzamide], the EC50 (as a rule, the concentration needed to bring the measured effect to its halfway point) was found to be 820 nM in series [1], 600 nM in series [3] and 420 nM in [5]. Besides, the 90% effect concentration (EC90) (as a rule, the point of the concentration-response curve where the effect stands at 90%) is 2700 nM in [1], 2600 nM in series [3] and 3300 nM in [5]. Further, the CC50 – broadly, the concentration giving 50% cytotoxicity – at 3 days is above 100000 nM in [2] (setting [15]), 11000 nM in series [4] and 9900 nM in [6]. Besides, in [7], the “inhibition of J6/JFH-1 HCV replication” value is “shown to inhibit J6/JFH-1HCV replication”. In addition, the “relative activity / potency versus NTZ” value in [7] is 65%. Further, the “cytotoxic effect in Huh 7.5 cells” value in [8] is given as “None of these compounds showed a cytotoxic effect”.
Consider `O=C(Nc1ccc([N+](=O)[O-])cc1Cl)c1cc(Cl)ccc1O` [Compound 6, 5-chloro-N-(2-chloro-4-nitrophenyl)-2-hydroxybenzamide], for which the EC50 in [1] is 310 nM; in series [3] it was 100 nM; in series [5], 110 nM. Also, the EC90 was found to be 1200 nM in series [1], 610 nM in series [3] and 820 nM in series [5]. The CC50 at 3 days was found to be 11000 nM in [2] (setting [15]), 640 nM in series [4] and 790 nM in series [6].
`CC(=O)Oc1ccc(Cl)cc1C(=O)Nc1ccc([N+](=O)[O-])cc1Cl` [Compound 25, 4-chloro-2-(2-chloro-4-nitrophenylcarbamoyl)phenyl acetate]: the EC50 in series [1] was 130 nM; in [3] it was 78 nM; in series [5], 100 nM. The figures for the EC90 in series [1], in series [3] and in series [5] were 820 nM, 310 nM and 460 nM, respectively. In addition, the CC50 at 3 days was found to be 5800 nM in series [2] (setting [15]), 3400 nM in [4] and 4300 nM in series [6].
Turning to `CC(=O)Oc1ccccc1C(=O)Nc1cc(C(F)(F)F)cc(C(F)(F)F)c1` [Compound 34, 2-(3,5-bis(trifluoromethyl)phenylcarbamoyl)phenyl acetate], the melting point (in general, the temperature, or range, at which the solid turns liquid) was in the range of 118 to 125 °C. In series [1], this compound returned a half-maximal effective concentration (EC50) of 440 nM and an EC90 of 1700 nM. In series [2] (setting [15]), this compound showed a CC50 at 3 days of 4300 nM. In series [3], this compound gave an EC50 of 910 nM and a concentration for an effect of 90% (EC90) of 3700 nM. For the same compound, the CC50 at 3 days in series [4] amounted to 9500 nM. In series [5], this compound gave a 50% effective concentration (EC50) of 790 nM and a 90% effect concentration (EC90) of 4700 nM. This compound came in with a 50% cytotoxic concentration (CC50) at 3 days in series [6] of 7800 nM.
For the compound `O=C(Nc1cc(C(F)(F)F)ccc1Cl)c1ccccc1O` [Compound 41, N-(2-chloro-5-(trifluoromethyl)phenyl)-2-hydroxybenzamide], the EC50 in series [1] was 5 nM; in [3] it was 45 nM; in series [5], 55 nM; in [9] it was 3700 nM. Moreover, the concentration for an effect of 90% (EC90) in series [1] is 32 nM; in series [3] it was 177 nM; in series [5], 244 nM; in [9] (read-out: EC90 (VIR)) it was 13000 nM. Also, the half-maximal cytotoxic concentration (CC50) at 3 days in [2] (setting [15]) was 330 nM; in series [4], 790 nM; in series [6] it was 680 nM. The compound further showed a CC50 at 9 days in [10] above 100000 nM.
With `COC(=O)c1ccc(NC(=O)c2ccccc2OC(C)=O)cc1` [Compound 44, methyl 4-(2-acetoxybenzamido)benzoate], the EC50 in series [1] worked out at 58 nM; in series [3], 350 nM; in series [5], 300 nM. Also, the EC90 in series [1] is 461 nM; in series [3], 4500 nM; in series [5], 5100 nM. For the same compound, the CC50 at 3 days is 4400 nM in series [2] (setting [15]), 6800 nM in [4] and 7500 nM in [6]. Besides, the “inhibition of J6/JFH-1 HCV replication” value in [7] is on record as “shown to inhibit J6/JFH-1HCV replication”. Moreover, in series [7], the “relative activity / potency versus NTZ” value was 53%. For the same compound, the “cytotoxic effect in Huh 7.5 cells” value in series [8] was “None of these compounds showed a cytotoxic effect”.
For the compound `CC(=O)Oc1ccccc1C(=O)Nc1ncc([N+](=O)[O-])s1` [NTZ, nitazoxanide, reference compound], the concentration for a half-maximal effect (EC50) is 210 nM in series [1]; 250 nM in series [3]; 330 nM in series [5]; 120 nM in [9]; 590 nM in series [13]. The EC90 in series [1] turned out to be 977 nM; in series [3], 950 nM; in [5] it was 1100 nM. Also, in [2], the CC50 at 3 days was determined as 31000 nM. In addition, the CC50 turned out to be 35000 nM in [11] and 49000 nM in [12]. Also, the CC50 at 9 days in [10] was above 100000 nM. For the same compound, the “inhibition of J6/JFH-1 HCV replication” value in [7] is “demonstrated efficacy with regards to HCV replication; also recorded: shown to inhibit J6/JFH-1HCV replication”. For the same compound, the “cytotoxic effect in Huh 7.5 cells” value in series [8] is reported as “without being cytotoxic; also recorded: None of these compounds showed a cytotoxic effect”. In [14], the detection in plasma result is recorded as “not detected in plasma”.
